From US9174966B2, “Crystalline forms of 6-(1H-imidazol-1-yl)-2-phenylquinazoline” (ROTTAPHARM S.P.A., priority 2009, dated 2015)
Values joined by “and” are separate entries in the source; they are usually repeats but may differ in a detail not shown here. Equal values may be shown once. “Also recorded” adds a separate entry of the source. Where a name gives a salt, the structure may show the parent alone. Read-outs that look alike come from different tables or passages of the source.

Legend:
[1] = Solubility in aqueous solution of NaCl 0.9% (UV absorbance at 260 nm); assay type: physicochemical; conditions: aqueous NaCl 0.9%, stirred 500 rpm, 24 hours at 37° C.; for solubility at 24 h: aqueous solution of NaCl 0.9%, 37 °C, saline or isotonic, thermodynamic from solid
Description: The solubility is 0.6 mg/mL. […]
The sample of 6-(1H-imidazol-1-yl)-2-phenylquinazoline phosphate, form A, is stirred in an aqueous solution of NaCl 0.9%, at 500 rpm, so as to obtain a suspension (50 mg in 2 mL), for 24 hours at 37° C.
(§1) The sample of 6-(1H-imidazol-1-yl)-2-phenylquinazoline phosphate, form A, is stirred in an aqueous solution of NaCl 0.9%, at 500 rpm, so as to obtain a suspension (70 mg in 2 mL), for 24 hours at 37° C. […] The dissolution rate is measured by adding 2 mg of product to 40 mL of water at 37° C., stirring at 500 rpm, and measuring the absorbance at 260 nm every 0.05 min; the dissolution rate is found to be 1.9×10^−4 gr/min.

[2] = Dissolution rate in water at 37° C.; assay type: physicochemical; conditions: 2 mg of product in 40 mL of water at 37° C., 500 rpm, absorbance at 260 nm
Description: as §1

[3] = Pharmacokinetics in rats, oral versus intravenous administration; assay type: in vivo; conditions: for bioavailability: read-out: F (bioavailability); for half-life: read-out: T½
Description: The samples are analysed by HPLC-MS to determine the content of 6-(1H-imidazol-1-yl)-2-phenylquinazoline, using diphenylhydramine hydrochloride as internal standard. The pharmacokinetic parameters measured are summarized hereinbelow: it is noted that, despite the fact that the polymorph under consideration is of low solubility, the bioavailability (F %) is entirely acceptable.
The pharmacokinetic parameters measured are summarized hereinbelow: it is noted that the salt under consideration has optimum bioavailability (F %). […]

[4] = Stability to mechanical stress (milling, XRPD); assay type: physicochemical; conditions: Retsch MM 200 mill, 50 Hz, 5 min.
Description: 6-(1H-Imidazol-1-yl)-2-phenylquinazoline, polymorph A, was subjected to milling by means of a Retsch MM 200 mill, at 50 Hz for 5 min., and the product thus obtained was analysed by XRPD.
6-(1H-Imidazol-1-yl)-2-phenylquinazoline succinate form A, was subjected to milling by means of a Retsch MM 200 mill, at 50 Hz for 5 min., and the product thus obtained was subjected to XRPD analysis.
6-(1H-Imidazol-1-yl)-2-phenylquinazoline L-tartrate dihydrate, form A, was subjected to milling by means of a Retsch MM 200 mill, at 50 Hz for 5 min., and the product thus obtained was subjected to XRPD analysis.
6-(1H-Imidazol-1-yl)-2-phenylquinazoline maleate, form A, was subjected to milling by means of a Retsch MM 200 mill, at 50 Hz for 5 min., and the product thus obtained was subjected to XRPD analysis.

[5] = Stability to moisture, DVS analysis (Differential Vapour Sorption); assay type: physicochemical; conditions: 25° C.; for hygroscopicity (DVS): hydration/dehydration cycle
Description: The sample placed on a microbalance is subjected, in a chamber of controlled humidity, at 25° C., to a cycle of hydration (increasing humidity, red line) and of dehydration (decreasing humidity, blue line).
The sample of 6-(1H-imidazol-1-yl)-2-phenylquinazoline succinate form A was subjected to DVS analysis (as described in Example 32).
The sample of 6-(1H-imidazol-1-yl)-2-phenylquinazoline L-tartrate dihydrate, form A, was subjected to DVS analysis.
The sample of 6-(1H-imidazol-1-yl)-2-phenylquinazoline maleate, form A, was subjected to DVS analysis.

[6] = Hygroscopicity noted for the isolated crystalline product; assay type: physicochemical; conditions: as noted in the preparation example
[7] = Thermal stability of the crystalline form (XRPD)
[8] = IV, 5 mg/kg, dihydrochloride monohydrate
[9] = OS (oral), 10 mg/Kg, dihydrochloride monohydrate
[10] = rat, blood, OS 10 mg/Kg compared with IV 5 mg/kg
[11] = rat, blood, iv, 5 mg/kg, IV, 5 mg/kg
[12] = rat, blood, po, 10 mg/kg, OS (oral), 10 mg/Kg, read-out: Tmax (converted)
[13] = rat, blood, po, 10 mg/kg, OS (oral), 10 mg/Kg
[14] = 90° C., 12 hours (or at least 12 hours), XRPD
[15] = heating at/to 90° C., time not stated, succinate

With `c1ccc(-c2ncc3cc(-n4ccnc4)ccc3n2)cc1` [dihydrochloride monohydrate form A, 6-(1H-imidazol-1-yl)-2-phenylquinazoline dihydrochloride monohydrate] the solubility at 24 h [1] was 138 mg/mL, the dissolution rate [2] was 2.17×10^−3 gr/min and the CL [3, 8] was 1.44 L/h/kg. The T½ [3, 8] was 46.6 min, the V [3, 8] was 1.26 L/kg and the “F (bioavailability)” value ([3]; OS 10 mg/Kg compared with IV 5 mg/kg, dihydrochloride monohydrate) was 90.0%. The CL [3, 9] was 1.08 L/h/kg, the Tmax [3, 9] was 80 min and the T½ [3, 9] was 59.9 min. The V [3, 9] was 2.96 L/kg, the stability to milling ([4]; dihydrochloride monohydrate) was “No increase in the amount of amorphous product present relative to the reference example, as well as no foreign signals attributable to other forms” and the “hygroscopicity (DVS)” value [5] was “in the range 30-80% relative humidity (RH), the product is not particularly hygroscopic”. The “water content (DVS)” value ([5]; range 30-80% relative humidity) was “about 5%”, the “hygroscopicity of the isolated product” value [6] was “non-hygroscopic” and the “thermal stability of crystalline form” value ([7]; 40° C., RH 85%, 7 days, XRPD, dihydrochloride monohydrate) was “stable”. The “time after which complete conversion into the monohydrochloride is noted” value ([7]; 90° C., VT-XRPD) was 48 h, the “time after which formation of the monohydrochloride is noted” value ([7]; 90° C., VT-XRPD) was 36 h and the “thermal stability of crystalline form” value ([7]; 90° C., several hours) was “stable”.
For `O=C(O)CCC(=O)O.c1ccc(-c2ncc3cc(-n4ccnc4)ccc3n2)cc1` [succinate form A, 6-(1H-imidazol-1-yl)-2-phenylquinazoline succinate], the solubility at 24 h [1] was 0.6 mg/mL, the dissolution rate [2] was 3.53×10^−5 gr/min and the V ([3]; IV, 5 mg/kg) was 1.1 L/kg. For the same compound, the CL ([3]; OS (oral), 10 mg/Kg) was 1.14 L/h/kg, the V ([3]; OS (oral), 10 mg/Kg) was 3.74 L/kg and the bioavailability [3, 10] was 65%. For the same compound, the clearance ([3]; rat, blood, iv, 5 mg/kg) was 1.08 L/h/kg, the half-life [3, 11] was 48.9 min and the Tmax [3, 12] was 60 min. For the same compound, the half-life [3, 13] was 48.6 min, the stability to milling [4] was “has not undergone any changes of crystalline form and no presence of amorphous product is revealed” and the “hygroscopicity (DVS)” value ([5]; succinate) was “not entirely hygroscopic; also recorded: only at about 90% RH is there a significant minimum absorption of water”. The “hygroscopicity of the isolated product” value ([6]; succinate) was “non-hygroscopic”, the “thermal stability of crystalline form” value ([7]; 40° C., RH 85%, 7 days, XRPD) was “stable” and the “thermal stability of crystalline form” value [7, 14] was “stable”.
In the case of `c1ccc(-c2ncc3cc(-n4ccnc4)ccc3n2)cc1` [form B, 6-(1H-imidazol-1-yl)-2-phenylquinazoline monohydrate], the “thermal stability of crystalline form” value ([7]; 40° C., RH 85%, 7 days, XRPD, monohydrate) is reported as “appearance of the signals of form E” and the “behaviour in variable temperature experiment (VT-XRPD)” value ([7]; heated to between 40° C. and 180° C.) is reported as “conversion into form E”.
With `c1ccc(-c2ncc3cc(-n4ccnc4)ccc3n2)cc1` [form C, 6-(1H-imidazol-1-yl)-2-phenylquinazoline monohydrate] the “thermal stability of crystalline form” value ([7]; 40° C., RH 85%, 5 days (at least 5 days for polymorph A), XRPD) was “stable” and the “thermal stability of crystalline form” value ([7]; 90° C., 3 hours, XRPD, monohydrate) was “complete conversion into form E”.
With `c1ccc(-c2ncc3cc(-n4ccnc4)ccc3n2)cc1` [form D, 6-(1H-imidazol-1-yl)-2-phenylquinazoline] the “thermal stability of crystalline form” value ([7]; 40° C., RH 85%, 7 days, XRPD) was “stable” and the “thermal stability of crystalline form” value ([7]; 90° C., 3 hours, XRPD) was “stable”.
In the case of `Cl.c1ccc(-c2ncc3cc(-n4ccnc4)ccc3n2)cc1` [hydrochloride salt form B, 6-(1H-imidazol-1-yl)-2-phenylquinazoline hydrochloride], the “hygroscopicity of the isolated product” value [6] is reported as “hygroscopic”.
With `O.O.O.O.O=C(O)C(O)C(O)C(=O)O.c1ccc(-c2ncc3cc(-n4ccnc4)ccc3n2)cc1` [tartrate salt form B, 6-(1H-imidazol-1-yl)-2-phenylquinazoline (L)-tartrate tetrahydrate] the “thermal stability of crystalline form” value ([7]; 40° C., RH 85%, 7 days, XRPD) was “stable” and the “thermal stability of crystalline form” value [7, 14] was “gives rise to the amorphous form”.
With `O=C(O)C(O)C(O)C(=O)O.c1ccc(-c2ncc3cc(-n4ccnc4)ccc3n2)cc1` [tartrate form A, 6-(1H-imidazol-1-yl)-2-phenylquinazoline (L) tartrate dihydrate] the solubility at 24 h [1] was 2.5 mg/mL, the dissolution rate [2] was 1.04×10^−3 gr/min and the V ([3]; IV, 5 mg/kg) was 1.4 L/kg. The CL ([3]; OS (oral), 10 mg/Kg) was 1.02 L/h/kg, the V ([3]; OS (oral), 10 mg/Kg) was 5.47 L/kg and the bioavailability [3, 10] was 81%. It also gave a clearance ([3]; rat, blood, iv, 5 mg/kg) of 1.38 L/h/kg, a half-life [3, 11] of 47.7 min and a Tmax [3, 12] of 100 min. The half-life [3, 13] was 47.2 min, the stability to milling [4] was “has not undergone any changes of crystalline form, and a slight increase in the presence of amorphous product is revealed” and the “hygroscopicity (DVS)” value ([5]; tartrate dihydrate) was “not hygroscopic in the range 25-70% RH; also recorded: point of inflection at 75% RH; also recorded: highly hygroscopic only at values of greater than 80% RH”. For the same compound, the “hygroscopicity of the isolated product” value [6] was “non-hygroscopic”, the “thermal stability of crystalline form” value ([7]; 40° C., 70% RH, 7 days, XRPD) was “stable” and the “thermal stability of crystalline form” value ([7]; 90° C., 12 hours (or at least 12 hours), XRPD, tartrate dihydrate) was “gives rise to the amorphous form”.
With `O=C(O)CCC(=O)O.c1ccc(-c2ncc3cc(-n4ccnc4)ccc3n2)cc1` [succinate salt form B, 6-(1H-imidazol-1-yl)-2-phenylquinazoline succinate] the “hygroscopicity of the isolated product” value ([6]; succinate) was “non-hygroscopic” and the “thermal stability of crystalline form” value [7, 15] was “converted into form A”.
In the case of `O=P(O)(O)O.c1ccc(-c2ncc3cc(-n4ccnc4)ccc3n2)cc1` [phosphate, form A, 6-(1H-imidazol-1-yl)-2-phenylquinazoline phosphate], the solubility ([1]; phosphate) is reported as 3.6 mg/mL, the solubility at 24 h [1] is reported as 6.2 mg/mL and the dissolution rate ([2]; phosphate) is reported as 1.73×10^−4 gr/min and 1.9×10^−4 gr/min.
With `O=C(O)CCC(=O)O.c1ccc(-c2ncc3cc(-n4ccnc4)ccc3n2)cc1` [succinate salt form C, 6-(1H-imidazol-1-yl)-2-phenylquinazoline succinate] the “hygroscopicity of the isolated product” value ([6]; succinate) was “not hygroscopic” and the “thermal stability of crystalline form” value [7, 15] was “stable”.
In the case of “6-(1H-imidazol-1-yl)-2-phenylquinazoline maleate hemihydrate [maleate salt form B]”, the “thermal stability of crystalline form” value ([7]; 40° C., RH 85%, 7 days, XRPD) is reported as “partially converted into form A” and the “thermal stability of crystalline form” value [7, 14] is reported as “converted into form A”.
For `O.O=C(O)C(O)C(O)C(=O)O.c1ccc(-c2ncc3cc(-n4ccnc4)ccc3n2)cc1` [tartrate salt form C, 6-(1H-imidazol-1-yl)-2-phenylquinazoline (L)-tartrate monohydrate], the “thermal stability of crystalline form” value ([7]; 40° C., RH 85%, 7 days, XRPD) was “stable” and the “thermal stability of crystalline form” value [7, 14] was “stable”.
In the case of `O=C(O)C(O)C(O)C(=O)O.c1ccc(-c2ncc3cc(-n4ccnc4)ccc3n2)cc1` [tartrate salt form D, 6-(1H-imidazol-1-yl)-2-phenylquinazoline (L)-tartrate], the “thermal stability of crystalline form” value ([7]; 40° C., RH 85%, 7 days, XRPD) is reported as “gives an XRPD corresponding to form A” and the “thermal stability of crystalline form” value [7, 14] is reported as “an amorphous product”.
In the case of `O=C(O)/C=C/C(=O)O.c1ccc(-c2ncc3cc(-n4ccnc4)ccc3n2)cc1` [fumarate form A, 6-(1H-imidazol-1-yl)-2-phenylquinazoline fumarate], the solubility at 24 h [1] is reported as 1.2 mg/mL, the dissolution rate [2] is reported as 2.67×10^−5 gr/min and the “hygroscopicity of the isolated product” value [6] is reported as “non-hygroscopic”. For the same compound, the “thermal stability of crystalline form” value ([7]; 40° C., RH 85%, 7 days, XRPD) was “stable”.
